Results as given in patent US6107288A, “Antiviral nucleoside combination” (priority 1991, dated 2000).
Values joined by “and” are separate entries in the source; they are usually repeats but may differ in a detail not shown here. Equal entries are not always repeated. Where two headings read alike, the source gives them in different places.

Test system: HIV
Assay type: cell-based
Method: Combinations according to the invention were tested for anti-HIV activity in an HIV-infected MT4 cell assay as described in Averett, D. R., J. Virol. Methods, 23, 263-276 (1989). The cells were exposed to HIV for one hour prior to addition of antiviral component(s). Components were tested in serial 2.5-fold dilutions. After five days of incubation at 37° C., the cell number was determined. Inhibition of HIV-induced cytopathic effect was calculated, and synergism was determined by FIC plots as described by Elion, Singer, and Hitchings, J. Biol. Chem. 208, 477 (1954).
The fractional inhibitor concentrations (FIC) of zidovudine and cis-1-(2-(hydroxymethyl)-1,3-oxathiolan-5-yl)-5-fluorocytosine were calculated according to the method of Elion et al., supra (Table 1).

Nc1nc(=O)n([C@@H]2CS[C@H](CO)O2)cc1F (relative stereo) [Compound 1, cis1-(2-(hydroxymethyl)-1,3-oxathiolan-5-yl)-5-fluorocytosine] was tested, and the “Fractional Inhibitor Concentration (FIC)” value was 0.48 and 0.38 and 0.31 and 0.26.

Cc1cn([C@H]2C[C@H](N=[N+]=[N-])[C@@H](CO)O2)c(=O)[nH]c1=O [Zidovudine, 3'-azido-3'-deoxythymidine] was tested, and the “Fractional Inhibitor Concentration (FIC)” value (70% inhibition, combination of zidovudine 0.004 with Compound 1 2.5) was 0.018, the “Fractional Inhibitor Concentration (FIC)” value (70% inhibition, combination of zidovudine 0.01 with Compound 1 2.0) was 0.045 and the “Fractional Inhibitor Concentration (FIC)” value (70% inhibition, combination of zidovudine 0.0256 with Compound 1 1.6) was 0.12. For the same compound, the “Fractional Inhibitor Concentration (FIC)” value (70% inhibition, combination of zidovudine 0.06 with Compound 1 1.4) was 0.27.
